Test results reported in ChEMBL document CHEMBL3994622, “Design and synthesis of new RAF kinase-inhibiting antiproliferative quinoline derivatives. Part 2: Diarylurea derivatives” (Eur J Med Chem, 2017).

Experiments:
[1] = target: Serine/threonine-protein kinase B-raf (Homo sapiens, UniProt P15056); test: Inhibition of human BRAF using MEK1 as substrate in presence of [33P]ATP by Hotspot assay
[2] = target: Receptor tyrosine-protein kinase erbB-2 (Homo sapiens) (UniProt P04626); test: Inhibition of human HER2 at 10 uM using poly[Glu:Tyr] (4:1) as substrate in presence of [33P]ATP by Hotspot assay relative to control
Chain of Receptor tyrosine-protein kinase erbB-2 (Homo sapiens) (P04626 whole entry): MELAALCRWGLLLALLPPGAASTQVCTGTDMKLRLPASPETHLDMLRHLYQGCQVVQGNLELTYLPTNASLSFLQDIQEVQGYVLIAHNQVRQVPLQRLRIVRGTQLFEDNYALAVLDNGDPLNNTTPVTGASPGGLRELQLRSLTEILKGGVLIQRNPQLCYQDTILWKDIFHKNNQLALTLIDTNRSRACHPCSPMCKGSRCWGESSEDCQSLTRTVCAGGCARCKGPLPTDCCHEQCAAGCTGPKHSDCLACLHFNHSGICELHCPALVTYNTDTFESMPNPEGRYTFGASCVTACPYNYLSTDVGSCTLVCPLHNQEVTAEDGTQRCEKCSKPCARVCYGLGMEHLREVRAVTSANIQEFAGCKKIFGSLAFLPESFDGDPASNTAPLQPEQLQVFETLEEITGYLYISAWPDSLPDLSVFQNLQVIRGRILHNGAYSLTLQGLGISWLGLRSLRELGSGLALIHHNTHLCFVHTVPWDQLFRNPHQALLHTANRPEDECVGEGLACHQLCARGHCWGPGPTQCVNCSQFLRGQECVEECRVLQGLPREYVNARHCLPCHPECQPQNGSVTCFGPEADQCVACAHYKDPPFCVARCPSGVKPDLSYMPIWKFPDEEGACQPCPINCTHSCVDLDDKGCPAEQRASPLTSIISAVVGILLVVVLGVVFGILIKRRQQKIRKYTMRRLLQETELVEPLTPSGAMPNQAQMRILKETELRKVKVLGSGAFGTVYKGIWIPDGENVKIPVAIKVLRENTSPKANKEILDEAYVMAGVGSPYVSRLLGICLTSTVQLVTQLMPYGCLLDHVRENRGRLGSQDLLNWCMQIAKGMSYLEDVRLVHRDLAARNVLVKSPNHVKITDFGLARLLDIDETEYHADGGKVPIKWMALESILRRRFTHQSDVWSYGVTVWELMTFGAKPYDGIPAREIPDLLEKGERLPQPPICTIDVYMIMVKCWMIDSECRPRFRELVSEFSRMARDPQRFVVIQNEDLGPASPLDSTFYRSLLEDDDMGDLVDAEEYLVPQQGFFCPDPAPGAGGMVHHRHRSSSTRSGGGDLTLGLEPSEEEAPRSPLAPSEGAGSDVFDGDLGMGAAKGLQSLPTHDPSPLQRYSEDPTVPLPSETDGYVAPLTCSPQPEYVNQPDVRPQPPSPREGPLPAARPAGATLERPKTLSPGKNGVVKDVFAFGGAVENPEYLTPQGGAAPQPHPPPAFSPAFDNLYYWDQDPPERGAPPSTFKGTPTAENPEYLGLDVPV

[3] = species: Homo sapiens; test: Selectivity index, ratio of IC50 for human BRAF V600E mutant to IC50 for human c-RAF
[4] = tested on: MDA-MB-468; test: Growth inhibition of human MDA-MB-468 cells assessed as cell growth at 0.01 uM incubated for 48 hrs by sulforhodamine B assay relative to control; type: functional; settings: MDA-MB-468, 48 h, read-out: Activity
[5] = tested on: MOLT-4; test: Growth inhibition of human MOLT4 cells assessed as cell growth at 0.005 uM incubated for 48 hrs by sulforhodamine B assay relative to control; type: functional; settings: MOLT-4, 48 h, read-out: Activity
[6] = tested on: NCI-H460; test: Growth inhibition of human NCI-H460 cells assessed as cell growth at 0.005 uM incubated for 48 hrs by sulforhodamine B assay relative to control; type: functional; settings: NCI-H460, 48 h, read-out: Activity
[7] = tested on: SF-539; test: Growth inhibition of human SF539 cells assessed as cell growth at 0.005 uM incubated for 48 hrs by sulforhodamine B assay relative to control; type: functional; settings: SF-539, 48 h, read-out: Activity
[8] = tested on: U-251; test: Growth inhibition of human U251 cells assessed as cell growth at 0.005 uM incubated for 48 hrs by sulforhodamine B assay relative to control; type: functional; settings: U-251, 48 h, read-out: Activity
[9] = tested on: CAKI-1; test: Growth inhibition of human Caki1 cells assessed as cell growth at 0.005 uM incubated for 48 hrs by sulforhodamine B assay relative to control; type: functional; settings: CAKI-1, 48 h, read-out: Activity
[10] = tested on: TK-10; test: Growth inhibition of human TK10 cells assessed as cell growth at 0.005 uM incubated for 48 hrs by sulforhodamine B assay relative to control; type: functional; settings: TK-10, 48 h, read-out: Activity
[11] = tested on: Hs-578T; test: Growth inhibition of human Hs 578T cells assessed as cell growth at 0.005 uM incubated for 48 hrs by sulforhodamine B assay relative to control; type: functional; settings: read-out: Activity
[12] = tested on: NCI-H322M; test: Growth inhibition of human NCI-H322M cells assessed as cell growth at 0.05 uM incubated for 48 hrs by sulforhodamine B assay relative to control; type: functional; settings: read-out: Activity
[13] = tested on: COLO 205; test: Growth inhibition of human COLO205 cells assessed as cell growth at 0.05 uM incubated for 48 hrs by sulforhodamine B assay relative to control; type: functional; settings: COLO 205, 48 h, read-out: Activity
[14] = tested on: HCT-116; test: Growth inhibition of human HCT116 cells assessed as cell growth at 0.05 uM incubated for 48 hrs by sulforhodamine B assay relative to control; type: functional; settings: HCT-116, 48 h, read-out: Activity
[15] = tested on: SK-MEL-28; test: Growth inhibition of human SK-MEL-28 cells assessed as cell growth at 0.05 uM incubated for 48 hrs by sulforhodamine B assay relative to control; type: functional; settings: SK-MEL-28, 48 h, read-out: Activity
[16] = tested on: IGROV-1; test: Growth inhibition of human IGROV1 cells assessed as cell growth at 0.05 uM incubated for 48 hrs by sulforhodamine B assay relative to control; type: functional; settings: IGROV-1, 48 h, read-out: Activity
[17] = tested on: PC-3; test: Growth inhibition of human PC3 cells assessed as cell growth at 0.05 uM incubated for 48 hrs by sulforhodamine B assay relative to control; type: functional; settings: PC-3, 48 h, read-out: Activity
[18] = tested on: DU-145; test: Growth inhibition of human DU145 cells assessed as cell growth at 0.05 uM incubated for 48 hrs by sulforhodamine B assay relative to control; type: functional; settings: DU-145, 48 h, read-out: Activity
[19] = tested on: A549; test: Growth inhibition of human A549/ATCC cells assessed as cell growth at 0.5 uM incubated for 48 hrs by sulforhodamine B assay relative to control; type: functional; settings: A549, 48 h, read-out: Activity
[20] = tested on: SW-620; test: Growth inhibition of human SW620 cells assessed as cell growth at 0.5 uM incubated for 48 hrs by sulforhodamine B assay relative to control; type: functional; settings: SW-620, 48 h, read-out: Activity
[21] = tested on: UACC-62; test: Growth inhibition of human UACC62 cells assessed as cell growth at 0.5 uM incubated for 48 hrs by sulforhodamine B assay relative to control; type: functional; settings: UACC-62, 48 h, read-out: Activity
[22] = tested on: NCI/ADR-RES; test: Growth inhibition of human NCI/ADR-RES cells assessed as cell growth at 0.5 uM incubated for 48 hrs by sulforhodamine B assay relative to control; type: functional; settings: read-out: Activity
[23] = tested on: T47D; test: Growth inhibition of human T47D cells assessed as cell growth at 0.5 uM incubated for 48 hrs by sulforhodamine B assay relative to control; type: functional; settings: read-out: Activity
[24] = tested on: HCT-15; test: Growth inhibition of human HCT15 cells assessed as cell growth at 5 uM incubated for 48 hrs by sulforhodamine B assay relative to control; type: functional; settings: HCT-15, 48 h, read-out: Activity
[25] = tested on: CAKI-1; test: Growth inhibition of human Caki1 cells assessed as cell growth at 5 uM incubated for 48 hrs by sulforhodamine B assay relative to control; type: functional; settings: CAKI-1, 48 h, read-out: Activity
[26] = tested on: A549; test: Growth inhibition of human A549/ATCC cells assessed as cell growth at 50 uM incubated for 48 hrs by sulforhodamine B assay relative to control; type: functional; settings: A549, 48 h, read-out: Activity
[27] = tested on: SW-620; test: Growth inhibition of human SW620 cells assessed as cell growth at 50 uM incubated for 48 hrs by sulforhodamine B assay relative to control; type: functional; settings: SW-620, 48 h, read-out: Activity
[28] = tested on: SF-295; test: Growth inhibition of human SF295 cells assessed as cell growth at 50 uM incubated for 48 hrs by sulforhodamine B assay relative to control; type: functional; settings: SF-295, 48 h, read-out: Activity
[29] = tested on: UO-31; test: Growth inhibition of human UO31 cells assessed as cell growth at 50 uM incubated for 48 hrs by sulforhodamine B assay relative to control; type: functional; settings: UO-31, 48 h, read-out: Activity
[30] = tested on: PC-3; test: Growth inhibition of human PC3 cells assessed as cell growth at 50 uM incubated for 48 hrs by sulforhodamine B assay relative to control; type: functional; settings: PC-3, 48 h, read-out: Activity
[31] = tested on: MDA-MB-468; test: Growth inhibition of human MDA-MB-468 cells assessed as cell growth at 0.3 uM incubated for 48 hrs by sulforhodamine B assay relative to control; type: functional; settings: MDA-MB-468, 48 h, read-out: Activity

Chain of Serine/threonine-protein kinase B-raf (P15056 whole entry): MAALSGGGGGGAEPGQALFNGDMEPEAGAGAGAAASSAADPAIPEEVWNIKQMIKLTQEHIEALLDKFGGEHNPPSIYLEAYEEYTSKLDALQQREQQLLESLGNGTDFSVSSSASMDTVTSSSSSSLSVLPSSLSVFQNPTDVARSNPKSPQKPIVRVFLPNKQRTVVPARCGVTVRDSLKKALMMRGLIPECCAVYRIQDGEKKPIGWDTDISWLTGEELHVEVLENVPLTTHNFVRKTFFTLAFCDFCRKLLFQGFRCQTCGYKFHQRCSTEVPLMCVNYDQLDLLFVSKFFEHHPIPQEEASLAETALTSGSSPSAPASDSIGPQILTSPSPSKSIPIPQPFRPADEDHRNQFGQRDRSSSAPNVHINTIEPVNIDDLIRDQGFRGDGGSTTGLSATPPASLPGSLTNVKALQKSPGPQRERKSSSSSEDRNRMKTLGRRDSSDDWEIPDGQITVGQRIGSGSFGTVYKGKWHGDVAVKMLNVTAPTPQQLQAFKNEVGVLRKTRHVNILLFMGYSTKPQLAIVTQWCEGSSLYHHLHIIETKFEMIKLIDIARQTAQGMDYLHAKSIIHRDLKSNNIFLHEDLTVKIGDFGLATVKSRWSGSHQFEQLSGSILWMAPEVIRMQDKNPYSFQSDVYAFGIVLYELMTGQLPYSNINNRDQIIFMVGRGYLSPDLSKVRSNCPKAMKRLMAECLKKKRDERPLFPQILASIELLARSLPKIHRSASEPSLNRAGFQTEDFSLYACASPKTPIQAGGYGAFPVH

COc1cc2cc(Oc3ccc(NC(=O)Nc4ccc(Cl)c(C(F)(F)F)c4)cc3)c(C)nc2cc1OC
IC50 [1]: 1.33 µM | inhibition [2]: -7.21% | Ratio IC50 [3]: 2.6

COc1cc2cc(Oc3ccc(NC(=O)Nc4cc(C(F)(F)F)cc(C(F)(F)F)c4)cc3)c(C)nc2cc1OC
growth at 0.01 µM [4]: 101%

COc1cc2cc(Oc3ccc(NC(=O)Nc4cccc(C(F)(F)F)c4)cc3)c(C)nc2cc1OC
growth at 0.005 µM [5]: 97% | growth at 0.005 µM [6]: 96% | growth at 0.005 µM [7]: 104% | growth at 0.005 µM [8]: 98% | growth at 0.005 µM [9]: 98% | growth at 0.005 µM [10]: 92% | growth at 0.005 µM [11]: 90% | growth at 0.05 µM [12]: 96% | growth at 0.05 µM [13]: 94% | growth at 0.05 µM [14]: 93% | growth at 0.05 µM [15]: 98% | growth at 0.05 µM [16]: 108% | growth at 0.05 µM [17]: 99% | growth at 0.05 µM [18]: 94% | growth at 0.5 µM [19]: 86% | growth at 0.5 µM [20]: 108% | growth at 0.5 µM [21]: 86% | growth at 0.5 µM [22]: 95% | growth at 0.5 µM [23]: 94% | growth at 5 µM [24]: 18% | growth at 5 µM [25]: -7% | growth at 50 µM [26]: -72% | growth at 50 µM [27]: -37% | growth at 50 µM [28]: -63% | growth at 50 µM [29]: -24% | growth at 50 µM [30]: -65%

Cc1nc2cc(O)c(O)cc2cc1Oc1ccc(NC(=O)Nc2ccc(Cl)c(Cl)c2)cc1
growth at 0.3 µM [31]: 99%
